This is an account of results in US12522602B2, “Derivatives having 2,3-dihydro-1H-indene or 2,3-dihydrobenzofuran moiety or pharmaceutically acceptable salt thereof and pharmaceutical compositions comprising the same” (YUHAN CORPORATION, priority 2019, dated 2026).

Experiment [1] concerns GM1 production in Jurkat cells. The experiment is described as follows: cells. In kind it is cell-based.
Experiment [2] concerns the target glucosylceramide synthase (GCS) (Homo sapiens (Human), UniProt Q16739). The experiment is described as follows: Inhibitory activity against GCS (A549 cell lysate enzyme reaction, HPLC fluorescence). The following applies: NBD C6-ceramide and UDP-glucose, 37° C. for 90 minutes. In kind it is biochemical. The method, then:
Ibiglustat, known as a GCS inhibitor, was used as a control.
After the cells attached to the culture dish were washed with phosphate buffered saline (PBS), the cells were scraped off with a cell scraper and then centrifuged (4000 rpm, 3 min, 4° C.) to collect the cells in a 50 ml tube. The cell pellets were suspended in a lysis buffer (50 mM HEPES, pH 7.3, containing 1× the protease/phosphatase inhibitor cocktail), lysed by sonication, and then the lysate was centrifuged (13000 rpm, 10 min, 4° C.). The obtained supernatant was used for the quantitative analysis of proteins. The amount of proteins was measured using the BCA protein assay kit, using bovine serum albumin as a standard.
Enzymatic reactions were initiated by sequentially adding the following reaction materials to a 96 deep-well plate. Thereafter, the enzymatic reactions were performed at 37° C. for 90 minutes.
The enzymatic reactions were stopped by adding 100 μl of chloroform/methanol (2:1, v/v). […] The lower layer (50 μl) was transferred to a new 96 deep-well plate and dried with a reduced concentrator.

Where two headings read alike, the source gives them in different places.

Usually IC50 stands for the concentration needed to halve the response being measured.

The molecule `CC1(C)Oc2cc(-c3cccc(OC(F)(F)F)c3)ccc2C1NC(=O)O[C@@H]1CN2CCC1CC2` (stereo partly drawn) [Example 410, (S)-quinuclidin-3-yl (2,2-dimethyl-6-(3-(trifluoromethoxy)phenyl)-2,3-dihydrobenzofuran-3-yl)carbamate] displayed a half-maximal inhibitory concentration (IC50) in experiment [1] (Homo sapiens, Jurkat, 72 h) of 13 nM.
For the molecule “(S)-quinuclidin-3-yl (2,2-dimethyl-(2,4,5-trifluorophenyl)-2,3-dihydro-1H-inden-1-yl)carbamate [Example 68]”, the IC50 in experiment [2] came to 15.2 nM; in experiment [1] (read-out: IC50), 91.8 nM.
Turning to “(S)-quinuclidin-3-yl (6-(3-(2-methoxyethoxy)phenyl)-2,2-dimethyl-2,3-dihydrobenzofuran-3-yl)carbamate [Example 411]”, in experiment [1] (read-out: IC50), the IC50 turned out to be 79.3 nM.
